Test results published in patent publication US8173689B2 (Novartis AG, priority 2006, dated 2012).
Where two headings read alike, the source gives them in different places.

How the values were obtained:
[1] = target: T1, cytoplasmic domain of the human CSF-1R (Homo sapiens, UniProt P07333); test: In vitro kinase assay for colony stimulating factor-1 receptor (AlphaScreen); format: biochemical; conditions: read-out: CSF-1R percent inhibition
T1 construct: Recombinant protein corresponding to the cytoplasmic domain of the human CSF-1R; purchased Invitrogen Corporation, Carlsbad, Calif; PV3249
T1 sequence (P07333 539-972 limits assumed): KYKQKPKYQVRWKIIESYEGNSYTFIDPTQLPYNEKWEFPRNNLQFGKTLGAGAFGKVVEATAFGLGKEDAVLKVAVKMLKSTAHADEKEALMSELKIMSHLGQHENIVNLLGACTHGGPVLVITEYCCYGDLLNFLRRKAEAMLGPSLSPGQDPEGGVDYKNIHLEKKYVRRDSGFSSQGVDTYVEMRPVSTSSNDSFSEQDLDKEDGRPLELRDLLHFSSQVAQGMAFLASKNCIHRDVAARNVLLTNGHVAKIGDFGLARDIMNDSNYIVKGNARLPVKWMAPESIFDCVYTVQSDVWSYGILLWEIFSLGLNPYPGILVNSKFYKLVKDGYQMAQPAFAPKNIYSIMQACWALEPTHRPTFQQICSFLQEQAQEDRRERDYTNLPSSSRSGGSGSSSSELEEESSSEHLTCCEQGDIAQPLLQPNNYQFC
Method in brief: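 Test compounds, serially diluted threefold starting at 25 μM, were mixed with Hepes buffer (pH 7.5, Mg2+/Mn2+, DTT, BSA, Tween 80) containing 1 μM ATP. Recombinant kinase was present at 4 nM. After stopping, beads were added and plates were read the next day by AlphaScreen.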

kinase domain of cKIT = target: T2, kinase domain of cKIT (Homo sapiens, UniProt P10721); test: Inhibition of cKIT kinase signaling in an in vitro biochemical assay (alphascreen); conditions: read-out: cKit percent inhibition
T2 construct: The kinase domain of cKIT was assayed in 50 mM Hepes; purchased Upstate 14-559

kinase domain of PDGFRβ = target: T3, kinase domain of PDGFRβ (Homo sapiens, UniProt P09619); test: Inhibition of PDGFRb kinase signaling in an in vitro biochemical assay (alphascreen); conditions: read-out: PDGFRβ percent inhibition
T3 construct: The kinase domain of PDGFRβ was assayed in 50 mM Hepes; purchased Invitrogen P3082

[2] = test system: MNFS60 (murine AML cells); test: Cell viability assay in MCSF dependent MNFS60 cells (Cell Titer Glo); format: cell-based; conditions: Mus musculus, tested at about 1 μM, read-out: M-NFS-60 CP percent inhibition
Method in brief: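 Three-fold serial compound dilutions, prepared in DMSO at 500× the final level, were applied alongside MCSF (final 10 ng/ml). Incubation lasted 72 hrs (37° C., 5% CO2) before CellTiter-Glo addition. Triplicate points were curve-fitted for EC50.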

[3] = tested at about 1 μM, compounds of Table 3

T3 sequence (P09619 600-962 limits assumed): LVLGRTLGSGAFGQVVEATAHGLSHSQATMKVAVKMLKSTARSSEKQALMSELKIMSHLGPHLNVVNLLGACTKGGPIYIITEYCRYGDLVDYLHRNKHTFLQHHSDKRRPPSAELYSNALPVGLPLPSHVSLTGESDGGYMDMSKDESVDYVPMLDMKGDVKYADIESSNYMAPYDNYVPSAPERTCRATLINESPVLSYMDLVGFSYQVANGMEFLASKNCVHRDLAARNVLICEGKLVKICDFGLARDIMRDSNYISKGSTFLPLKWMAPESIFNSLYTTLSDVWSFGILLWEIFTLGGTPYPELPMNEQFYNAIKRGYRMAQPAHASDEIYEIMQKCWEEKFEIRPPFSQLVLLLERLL
T2 sequence (P10721 589-937 limits assumed): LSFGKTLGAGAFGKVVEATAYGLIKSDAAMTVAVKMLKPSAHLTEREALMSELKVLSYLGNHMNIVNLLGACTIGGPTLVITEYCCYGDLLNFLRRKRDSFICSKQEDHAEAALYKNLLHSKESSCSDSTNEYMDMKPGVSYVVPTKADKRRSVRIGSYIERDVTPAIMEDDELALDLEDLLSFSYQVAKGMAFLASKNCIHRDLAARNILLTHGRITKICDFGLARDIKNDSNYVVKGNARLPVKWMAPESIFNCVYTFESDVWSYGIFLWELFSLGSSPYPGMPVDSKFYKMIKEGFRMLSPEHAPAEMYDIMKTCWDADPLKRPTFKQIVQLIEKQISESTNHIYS

| SMILES | inhibition at 1 µM ([1]; tested at about 1 μM) [%] | inhibition at 1 µM (kinase domain of cKIT; tested at about 1 μM) [%] | inhibition at 1 µM (kinase domain of PDGFRβ; tested at about 1 μM) [%] | inhibition at 1 µM [1, 3] [%] | inhibition at 1 µM (kinase domain of cKIT; [3]) [%] | inhibition at 1 µM (kinase domain of PDGFRβ; [3]) [%] | inhibition at 1 µM ([2]; MNFS60 cells) [%] | inhibition at 1 µM [1] [%] | inhibition at 1 µM (kinase domain of cKIT) [%] | inhibition at 1 µM (kinase domain of PDGFRβ) [%] | inhibition at 1 µM ([2]; compounds of Table 3) [%] |
| --- | --- | --- | --- | --- | --- | --- | --- | --- | --- | --- | --- |
| COCCNC(=O)c1cc(Oc2ccc3nc(NCC4CCCCC4)sc3c2)ccn1 [Compound 159, 4-(2-(cyclohexylmethyl-amino)benzothiazol-6-yloxy)-N-(2-methox.ylethyl)-pyridine-2-carboxamide] | 99 | 12 | 1 |  |  |  | 17 |  |  |  |  |
| CN(C)CCNC(=O)c1cc(Oc2ccc3nc(NCC4CCCCC4)sc3c2)ccn1 [Compound 160, 4-(2-(cyclohexylmethyl-amino)benzothiazol-6-yloxy)-N-(2-(dimethylamino)-ethyl)pyridine-2-carboxamide] | 99 | 13 | 18 |  |  |  | 30 |  |  |  |  |
| CNC(=O)c1cc(Oc2ccc3nc(NCc4ccc(S(N)(=O)=O)cc4)sc3c2)ccn1 [Compound 161, 4-[2-(4-Sulfonamido-benzyl-amino)-benzothiazol-6-yloxy]-pyridine-2-carboxylic acid methylamide] | 100 | 0 | 94 |  |  |  | 38 |  |  |  |  |
| O[C@@H]1CCCC[C@H]1Nc1nc2ccc(Oc3ccncc3-c3cn[nH]c3)cc2s1 [Example 188] |  |  |  |  |  |  |  | 100 | 55 | 35 | 38 |
| Cn1cc(-c2cnccc2Oc2ccc3nc(N[C@@H]4CCCC[C@H]4O)sc3c2)cn1 [Example 189] |  |  |  | 100 | 31 | 23 |  |  |  |  | 26 |
| O[C@@H]1CCCC[C@H]1Nc1nc2ccc(Oc3ccncc3-c3cccnc3)cc2s1 [Example 190] |  |  |  | 98 | 22 | 19 |  |  |  |  | 5 |
| Cc1cc(Oc2ccc3nc(NCC4CCCCC4)sc3c2)ccn1 [Example 202] |  |  |  | 100 | 32 | 19 |  |  |  |  | 17 |
| Fc1cc2nccc(Oc3ccc4nc(NCC5CCCCC5)sc4c3)c2cc1F [Example 211] |  |  |  | 100 | 85 | 50 |  |  |  |  | 23 |
| CNC(=O)c1cc(Oc2ccc3nc(N[C@@H]4CC=CC[C@@H]4C(N)=O)sc3c2)ccn1 [Example 217] |  |  |  | 99 | 16 | 23 |  |  |  |  | 0 |
| N#Cc1ccc2c(Oc3ccc4nc(NCC5CCCCC5)sc4c3)ccnc2c1 [Example 221, 4-(2-(cyclohexylmethylamino)benzo[d]thiazol-6-yloxy)quinoline-7-carbonitrile] |  |  |  | 100 | 97 | 88 |  |  |  |  | 52 |
| O[C@@H]1CCCC[C@H]1Nc1nc2ccc(Oc3ccncc3Br)cc2s1 [Example 224, (1R,2R)-2-(6-(3-bromopyridin-4-yloxy)benzo[d]thiazol-2-ylamino)cyclohexanol] |  |  |  | 100 | 26 | 0 |  |  |  |  | 33 |
| Fc1ccc2c(Oc3ccc4nc(NCC5CCCCC5)sc4c3)ccnc2c1 [Example 227, N-(cyclohexylmethyl)-6-(7-fluoroquinolin-4-yloxy)benzo[d]thiazol-2-amine] |  |  |  | 100 | 100 | 47 |  |  |  |  | 65 |
| FC(F)(F)Oc1ccc2c(Oc3ccc4nc(NCC5CCCCC5)sc4c3)ccnc2c1 [Example 228, N-(cyclohexylmethyl)-6-(7-(trifluoromethoxy)quinolin-4-yloxy)benzo[d]thiazol-2-amine] |  |  |  | 100 | 70 | 26 |  |  |  |  | 32 |
| COC[C@H](Nc1nc2ccc(Oc3ccnc4ccccc34)cc2s1)[C@@H](O)c1ccccc1 [Example 233, (1S,2S)-3-methoxy-1-phenyl-2-(6-(quinolin-4-yloxy)benzo[d]thiazol-2-ylamino)propan-1-ol] |  |  |  | 100 | 85 | 84 |  |  |  |  | 59 |
| CC[C@H](C)[C@@H](CO)Nc1nc2ccc(Oc3ccnc4ccccc34)cc2s1 [Example 234, (2S,3S)-3-methyl-2-(6-(quinolin-4-yloxy)benzo[d]thiazol-2-ylamino)pentan-1-ol] |  |  |  | 100 | 64 | 56 |  |  |  |  | 78 |
| OC[C@@H](Nc1nc2ccc(Oc3ccnc4ccccc34)cc2s1)c1ccccc1 [Example 235, (S)-2-phenyl-2-(6-(quinolin-4-yloxy)benzo[d]thiazol-2-ylamino)ethanol] |  |  |  | 100 | 100 | 81 |  |  |  |  | 100 |

Continued, in another order:

| inhibition at 1 µM ([1]; tested at about 1 μM) [%] | inhibition at 1 µM (kinase domain of cKIT; tested at about 1 μM) [%] | inhibition at 1 µM (kinase domain of PDGFRβ; tested at about 1 μM) [%] | inhibition at 1 µM [1, 3] [%] | inhibition at 1 µM (kinase domain of cKIT; [3]) [%] | inhibition at 1 µM (kinase domain of PDGFRβ; [3]) [%] | SMILES | inhibition at 1 µM ([2]; MNFS60 cells) [%] | inhibition at 1 µM [1] [%] | inhibition at 1 µM (kinase domain of cKIT) [%] | inhibition at 1 µM (kinase domain of PDGFRβ) [%] | inhibition at 1 µM ([2]; compounds of Table 3) [%] |
| --- | --- | --- | --- | --- | --- | --- | --- | --- | --- | --- | --- |
|  |  |  | 100 | 100 | 97 | OC[C@@H](Nc1nc2ccc(Oc3ccnc4ccccc34)cc2s1)C1CCCCC1 [Example 236, (S)-2-cyclohexyl-2-(6-(quinolin-4-yloxy)benzo[d]thiazol-2-ylamino)ethanol] |  |  |  |  | 100 |
|  |  |  | 100 | 100 | 90 | CC(C)C[C@@H](CO)Nc1nc2ccc(Oc3ccnc4ccccc34)cc2s1 [Example 238, (S)-4-methyl-2-(6-(quinolin-4-yloxy)benzo[d]thiazol-2-ylamino)pentan-1-ol] |  |  |  |  | 100 |
|  |  |  | 100 | 100 | 25 | O[C@@H]1Cc2ccccc2[C@@H]1Nc1nc2ccc(Oc3ccnc4ccccc34)cc2s1 [Example 239, (1S,2R)-1-(6-(quinolin-4-yloxy)benzo[d]thiazol-2-ylamino)-2,3-dihydro-1H-inden-2-ol] |  |  |  |  | 90 |
|  |  |  | 100 | 97 | 35 | OC[C@H](Cc1ccccc1)Nc1nc2ccc(Oc3ccnc4ccccc34)cc2s1 [Example 242] |  |  |  |  | 51 |
|  |  |  | 100 | 100 | 69 | C[C@@H](Nc1nc2ccc(Oc3ccnc4ccccc34)cc2s1)C1CCCCC1 [Example 243, (R)-N-(1-cyclohexylethyl)-6-(quinolin-4-yloxy)benzo[d]thiazol-2-amine] |  |  |  |  | 76 |
|  |  |  | 100 | 100 | 82 | FC(F)Oc1ccccc1CNc1nc2ccc(Oc3ccnc4ccccc34)cc2s1 [Example 246, N-(2-(difluoromethoxy)benzyl)-6-(quinolin-4-yloxy)benzo[d]thiazol-2-amine] |  |  |  |  | 100 |
|  |  |  | 100 | 100 | 80 | c1ccc2c(Oc3ccc4nc(NC5CCCCCC5)sc4c3)ccnc2c1 [Example 247, N-cycloheptyl-6-(quinolin-4-yloxy)benzo[d]thiazol-2-amine] |  |  |  |  | 100 |
|  |  |  | 100 | 69 | 0 | c1ccc2c(c1)CCC[C@@H]2Nc1nc2ccc(Oc3ccnc4ccccc34)cc2s1 [Example 249, (S)-6-(quinolin-4-yloxy)-N-(1,2,3,4-tetrahydronaphthalen-1-yl)benzo[d]thiazol-2-amine] |  |  |  |  | 100 |
|  |  |  | 97 | 98 | 0 | OC[C@H](CC1CCCCC1)Nc1nc2ccc(Oc3ccnc4ccccc34)cc2s1 [Example 250] |  |  |  |  | 20 |
|  |  |  | 100 | 100 | 6 | c1ccc2c(Oc3ccc4nc(NCCC5CCOCC5)sc4c3)ccnc2c1 [Example 252, 6-(quinolin-4-yloxy)-N-(2-(tetrahydro-2H-pyran-4-yl)ethyl)benzo[d]thiazol-2-amine] |  |  |  |  | 81 |
|  |  |  | 100 | 100 | 6 | CC(C)CCNc1nc2ccc(Oc3ccnc4ccccc34)cc2s1 [Example 253, N-isopentyl-6-(quinolin-4-yloxy)benzo[d]thiazol-2-amine] |  |  |  |  | 86 |
